Assay results: ChEMBL document CHEMBL5523719, “Structure-activity relationship study of new carbazole sulfonamide derivatives as anticancer agents with dual-target mechanism” (Eur J Med Chem, 2024)
Activity calls are given as the source filed them. The calls are words filed in the database; no cut-off is given here.

Tests used:
MDA-MB-231 = experiment: Antiproliferation activity against human MDA-MB-231 cells measured after 72 hrs incubation by MTT assay; assay type: functional, cell-based; conditions: MDA-MB-231, 72 h
MIA PaCa-2 = experiment: Antiproliferation activity against human MIA PaCa-2 cells measured after 72 hrs incubation by MTT assay; assay type: functional, cell-based; conditions: MIA PaCa-2, 72 h
NCI-H460 = experiment: Antiproliferation activity against human NCI-H460 cells measured after 72 hrs incubation by MTT assay; assay type: functional, cell-based; conditions: NCI-H460, 72 h
KB = experiment: Antiproliferation activity against human KB cells measured after 72 hrs incubation by MTT assay; assay type: functional, cell-based
L02 = experiment: Antiproliferation activity against human L02 cells measured after 72 hrs incubation by MTT assay; assay type: functional, cell-based; conditions: L02, 72 h
MCF7 [1] = experiment: In vivo antitumor activity against human MCF7 cells xenografted in BALB/c mouse assessed as inhibition of tumor growth treated iv every other day for 26 days; assay type: functional, organism-based; conditions: time 26.0 day
MCF7 [2] = experiment: In vivo antitumor activity against human MCF7 cells xenografted in BALB/c mouse assessed as decrease in tumor volume treated at 2.5 mg/kg, iv every other day for 26 days relative to control; assay type: functional; conditions: MCF7, 624 h, time 26 day
MCF7 [3] = experiment: In vivo antitumor activity against human MCF7 cells xenografted in BALB/c mouse assessed as decrease in tumor volume treated at 5 mg/kg, iv every other day for 26 days relative to control; assay type: functional; conditions: MCF7, 624 h, time 26 day
[4] = Toxicity in BALB/c mouse xenografted with human MCF7 cells assessed as lesions in heart at 5 mg/kg, iv every other day for 26 days by H and E staining based assay; assay type: organism-based; conditions: in vivo, 624 h, time 26 day
[5] = Toxicity in BALB/c mouse xenografted with human MCF7 cells assessed as lesions in liver at 5 mg/kg, iv every other day for 26 days by H and E staining based assay; assay type: organism-based; conditions: in vivo, 624 h, time 26 day
[6] = Toxicity in BALB/c mouse xenografted with human MCF7 cells assessed as lesions in spleen at 5 mg/kg, iv every other day for 26 days by H and E staining based assay; assay type: organism-based; conditions: in vivo, 624 h, time 26 day
[7] = Toxicity in BALB/c mouse xenografted with human MCF7 cells assessed as lesions in lung at 5 mg/kg, iv every other day for 26 days by H and E staining based assay; assay type: organism-based; conditions: in vivo, 624 h, time 26 day
[8] = Toxicity in BALB/c mouse xenografted with human MCF7 cells assessed as lesions in kidney at 5 mg/kg, iv every other day for 26 days by H and E staining based assay; assay type: organism-based; conditions: in vivo, 624 h, time 26 day
MCF7 [9] = experiment: In vivo antitumor activity against human MCF7 cells xenografted in BALB/c mouse assessed as inhibition of Ki-67 expression treated at 5 mg/kg, iv every other day for 26 days; assay type: functional, organism-based; conditions: time 26.0 day
MCF7 [10] = experiment: In vivo antitumor activity against human MCF7 cells xenografted in BALB/c mouse assessed as increase in cleaved caspase-3 treated at 5 mg/kg, iv every other day for 26 days; assay type: functional, organism-based; conditions: time 26.0 day
[11] = Solubility of the compound; assay type: physicochemical
Bel-7402 = experiment: Antiproliferation activity against human Bel-7402 cells measured after 72 hrs incubation by MTT assay; assay type: functional, cell-based; conditions: Bel-7402, 72 h
HepG2 [12] = experiment: In vivo antitumor activity against human HepG2 cells xenografted in mouse assessed as inhibition of tumor growth treated iv every other day for 22 days; assay type: functional, organism-based; conditions: time 22.0 day
[13] = Toxicity in mouse xenografted with human HepG2 cells assessed as body weight change at 10 to 20 mg/kg, iv every other day for 22 days; assay type: organism-based; conditions: in vivo, 528 h, dose 10-20 mg/kg, time 22 day
HepG2 [14] = experiment: In vivo antitumor activity against human HepG2 cells xenografted in mouse assessed as inhibition of tumor growth treated at 50 mg/kg, iv every other day for 22 days relative to control; assay type: functional; conditions: HepG2, 528 h, time 22 day, read-out: TGI
MCF7 [15] = experiment: In vivo antitumor activity against human MCF7 cells xenografted in BALB/c mouse assessed as decrease in tumor volume treated at 50 mg/kg, iv every other day for 26 days relative to control; assay type: functional; conditions: MCF7, 624 h, time 26 day
MCF7 [16] = experiment: In vivo antitumor activity against human MCF7 cells xenografted in BALB/c mouse assessed as inhibition of Ki-67 expression treated at 50 mg/kg, iv every other day for 26 days; assay type: functional, organism-based; conditions: time 26.0 day
MCF7 [17] = experiment: In vivo antitumor activity against human MCF7 cells xenografted in BALB/c mouse assessed as increase in cleaved caspase-3 treated at 50 mg/kg, iv every other day for 26 days; assay type: functional, organism-based; conditions: time 26.0 day
MCF7 [18] = experiment: Antiproliferation activity against human MCF7 cells measured after 72 hrs incubation by MTT assay; assay type: functional, cell-based; conditions: MCF7, 72 h
NCI/ADR-RES = experiment: Antiproliferation activity against human MCF7/ADR cells measured after 72 hrs incubation by MTT assay; assay type: functional, cell-based
MCF7 [19] = experiment: Induction of apoptosis in human MCF7 cells assessed as viable cells at 50 nM measured after 48 hrs by AnnexinV/PI double staining assays (reference value: 91.20%); assay type: functional; conditions: read-out: Activity
MCF7 [20] = experiment: Induction of apoptosis in human MCF7 cells assessed as early apoptotic cells at 50 nM measured after 48 hrs by AnnexinV/PI double staining assays (reference value: 5.32%); assay type: functional
MCF7 [21] = experiment: Induction of apoptosis in human MCF7 cells assessed as late apoptotic cells at 50 nM measured after 48 hrs by AnnexinV/PI double staining assays (reference value: 2.60%); assay type: functional
MCF7 [22] = experiment: Induction of apoptosis in human MCF7 cells assessed as necrotic cells at 50 nM measured after 48 hrs by AnnexinV/PI double staining assays (reference value: 0.89%); assay type: functional
MCF7 [23] = experiment: Induction of apoptosis in human MCF7 cells assessed as multinuclear cells at 50 nM measured after 24 hrs by fluorescent microscopy; assay type: functional, cell-based
HMEC-1 [24] = experiment: Anti-proliferative activity against human HMEC-1 cells measured after 48 hrs; assay type: functional, cell-based; conditions: HMEC-1, 48 h
HMEC-1 [25] = experiment: Anti-migration activity in human HMEC-1 cells assessed as inhibition of cell migration at 5 nM measured after 48 hrs by Scratching assay; assay type: functional, cell-based
HMEC-1 [26] = experiment: Angiogenic activity against human HMEC-1 cells assessed as decrease in vascular area measured after 48 hrs by Endothelial tube formation assay; assay type: functional, cell-based; conditions: dose 1-100 nM
MCF7 [27] = experiment: In vivo antitumor activity against human MCF7 cells xenografted in BALB/c mouse assessed as decrease in tumor volume treated at 10 mg/kg, iv every other day for 26 days relative to control; assay type: functional; conditions: MCF7, 624 h, time 26 day
[28] = Toxicity in BALB/c mouse xenografted with human MCF7 cells assessed as lesions in heart at 10 mg/kg, iv every other day for 26 days by H and E staining based assay; assay type: organism-based; conditions: in vivo, 624 h, time 26 day
[29] = Toxicity in BALB/c mouse xenografted with human MCF7 cells assessed as lesions in liver at 10 mg/kg, iv every other day for 26 days by H and E staining based assay; assay type: organism-based; conditions: in vivo, 624 h, time 26 day
[30] = Toxicity in BALB/c mouse xenografted with human MCF7 cells assessed as lesions in spleen at 10 mg/kg, iv every other day for 26 days by H and E staining based assay; assay type: organism-based; conditions: in vivo, 624 h, time 26 day
[31] = Toxicity in BALB/c mouse xenografted with human MCF7 cells assessed as lesions in lung at 10 mg/kg, iv every other day for 26 days by H and E staining based assay; assay type: organism-based; conditions: in vivo, 624 h, time 26 day
[32] = Toxicity in BALB/c mouse xenografted with human MCF7 cells assessed as lesions in kidney at 10 mg/kg, iv every other day for 26 days by H and E staining based assay; assay type: organism-based; conditions: in vivo, 624 h, time 26 day
MCF7 [33] = experiment: In vivo antitumor activity against human MCF7 cells xenografted in BALB/c mouse assessed as inhibition of Ki-67 expression treated at 10 mg/kg, iv every other day for 26 days; assay type: functional, organism-based; conditions: time 26.0 day
MCF7 [34] = experiment: In vivo antitumor activity against human MCF7 cells xenografted in BALB/c mouse assessed as increase in cleaved caspase-3 treated at 10 mg/kg, iv every other day for 26 days; assay type: functional, organism-based; conditions: time 26.0 day

COc1cc(NS(=O)(=O)c2ccc3c(c2)c2ccc(NC(=O)[C@@H](N)C(C)C)cc2n3C)c(OC)cc1Cl.Cl
IC50 (MDA-MB-231): 102 nM
IC50 (MIA PaCa-2): 72.1 nM
IC50 (NCI-H460): 41.6 nM
IC50 (KB): 23 nM
IC50 (L02): 43.2 nM
TGI (MCF7 [1]): Dose-Dependent Effect
inhibition in vivo at 2.5 mg/kg (MCF7 [2]): 38%
inhibition in vivo at 5 mg/kg (MCF7 [3]): 66%
Activity [4]: Non-Toxic
Activity [5]: Non-Toxic
Activity [6]: Non-Toxic
Activity [7]: Non-Toxic
Activity [8]: Non-Toxic
Activity (MCF7 [9]): Active
Activity (MCF7 [10]): Active

COc1ccc(NS(=O)(=O)c2ccc3c(c2)c2ccc(NC(=O)[C@@H](N)CO)cc2n3C)c(OC)n1.Cl
solubility [11]: 2000 µg/mL
IC50 (Bel-7402): 1450 nM
TGI (HepG2 [12]): Dose-Dependent Effect
Activity [13]: Non-Toxic

COc1ccc(/C=C\c2cc(OC)c(OC)c(OC)c2)cc1OP(=O)([O-])[O-].[Na+].[Na+] [FOSBRETABULIN DISODIUM]
inhibition in vivo at 50 mg/kg (HepG2 [14]): 72%
Activity [13]: Non-Toxic
IC50 (MDA-MB-231): 3.66 nM
IC50 (MIA PaCa-2): 5.26 nM
IC50 (NCI-H460): 0.29 nM
IC50 (KB): 0.66 nM
IC50 (L02): 140 nM
inhibition in vivo at 50 mg/kg (MCF7 [15]): 77%
Activity (MCF7 [16]): Active
Activity (MCF7 [17]): Active

COc1ccc(NS(=O)(=O)c2ccc3c(c2)c2ccc(O)cc2n3C)c(OC)n1
solubility [11]: < 100 µg/mL
IC50 (MDA-MB-231): 98.4 nM
IC50 (MIA PaCa-2): 51.8 nM
IC50 (NCI-H460): 43.8 nM
IC50 (KB): 104 nM
IC50 (L02): 51.6 nM
IC50 (MCF7 [18]): 41.5 nM
IC50 (NCI/ADR-RES): 88.2 nM
viability at 0.05 µM (MCF7 [19]): 45.6%
Activity (MCF7 [20]): 39.03%
Activity (MCF7 [21]): 5.65%
Activity (MCF7 [22]): 0.04%
Activity (MCF7 [23]): Active
IC50 (HMEC-1 [24]): 6.42 nM
inhibition (HMEC-1 [25]): Active
Activity (HMEC-1 [26]): Dose-Dependent Effect

COc1cc(NS(=O)(=O)c2ccc3c(c2)c2ccc(OP(=O)([O-])[O-])cc2n3C)c(OC)cc1Cl.[Na+].[Na+]
IC50 (MDA-MB-231): 5.72 nM
IC50 (MIA PaCa-2): 14.4 nM
IC50 (NCI-H460): 18.5 nM
IC50 (KB): 36.1 nM
IC50 (L02): 55.3 nM
TGI (MCF7 [1]): Dose-Dependent Effect
inhibition in vivo at 5 mg/kg (MCF7 [3]): 56%
inhibition in vivo at 10 mg/kg (MCF7 [27]): 73%
Activity [28]: Non-Toxic
Activity [29]: Non-Toxic
Activity [30]: Non-Toxic
Activity [31]: Non-Toxic
Activity [32]: Non-Toxic
Activity (MCF7 [33]): Active
Activity (MCF7 [34]): Active
